Patent US9662327B2 (AGIOS PHARMACEUTICALS, INC, priority 2011, dated 2017)

Molecular target: IDH1 R132H (Homo sapiens (Human), UniProt O75874, R132H)
Test: Assays for IDH1 R132H Inhibitors (NADPH/aKG, resazurin detection)
Type: biochemical
Details: IDH1 R132H enzyme, Table 2; read-out: IDHR132H Activity
Method in brief: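 Mutant enzyme in 150 mM NaCl, 10 mM MgCl2, 20 mM Tris pH 7.5, 0.03% BSA; compound in DMSO added to substrate mix of 8 uM NADPH and 2 mM aKG. Reaction ran 50 min at room temperature, then resazurin detection mix (30 μM) added for 5 min at room temperature.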

Chain of IDH1 R132H (O75874 whole entry R132H): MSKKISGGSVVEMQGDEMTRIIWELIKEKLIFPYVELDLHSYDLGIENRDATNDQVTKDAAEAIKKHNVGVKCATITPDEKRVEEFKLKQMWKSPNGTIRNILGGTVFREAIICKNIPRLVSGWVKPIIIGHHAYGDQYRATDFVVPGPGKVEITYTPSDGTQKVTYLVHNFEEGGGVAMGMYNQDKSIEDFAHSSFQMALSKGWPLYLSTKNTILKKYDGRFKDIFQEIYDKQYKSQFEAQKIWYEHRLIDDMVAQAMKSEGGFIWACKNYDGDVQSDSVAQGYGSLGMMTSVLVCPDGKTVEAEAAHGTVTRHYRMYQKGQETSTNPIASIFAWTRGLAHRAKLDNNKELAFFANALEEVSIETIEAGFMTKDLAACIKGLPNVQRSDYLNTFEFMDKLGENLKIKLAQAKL

Structure (SMILES) | IC50
CC1(C)Cc2c(C#N)c(N3CCN(C(=O)c4ccoc4)[C@@H](c4ccccc4)C3)nc(C3CC3)c2CO1 [Compound 275] | 1 to 10 µM
CCOC(=O)C1CN(c2nc(C(C)C)c3c(c2C#N)CC(C)(C)OC3)CCN1C(=O)c1ccoc1 (stereo not drawn) [Compound 276] | 0.5 to 1 µM
CCOC(=O)C1CN(c2nc(C3CCCCC3)c3c(c2C#N)CCOC3)CCN1C(=O)c1ccoc1C (stereo not drawn) [Compound 277, ethyl 4-(5-cyano-8-cyclohexyl-3,4-dihydro-1H-pyrano[3,4-c]pyridin-6-yl)-1-(2-methylfuran-3-carbonyl)piperazine-2-carboxylate] | 1 to 10 µM
CCOC(=O)C1CN(c2nc(C3CCCCC3)c3c(c2C#N)CCOC3)CCN1C(=O)CCOC (stereo not drawn) [Compound 278, ethyl 4-(5-cyano-8-cyclohexyl-3,4-dihydro-1H-pyrano[3,4-c]pyridin-6-yl)-1-(3-methoxypropanoyl) piperazine-2-carboxylate] | 1 to 10 µM
Cc1ccccc1NC(=O)N1CCN(c2nc(C3CCCCC3)c3c(c2C#N)CCOC3)C[C@H]1C [Compound 279, (R)-4-(5-cyano-8-cyclohexyl-3,4-dihydro-1H-pyrano[3,4-c]pyridin-6-yl)-2-methyl-N-o-tolylpiperazine-1-carboxamide] | 1 to 10 µM
Cc1ccc(NC(=O)N2CCN(c3nc(C4CCCCC4)c4c(c3C#N)CCOC4)C[C@H]2C)cc1 [Compound 280, (R)-4-(5-cyano-8-cyclohexyl-3,4-dihydro-1H-pyrano[3,4-c]pyridin-6-yl)-2-methyl-N-p-tolylpiperazine-1-carboxamide] | 1 to 10 µM
C[C@@H]1CN(c2nc(C3CCCCC3)c3c(c2C#N)CCOC3)CCN1C(=O)Nc1ccc(F)cc1 [Compound 281, (R)-4-(5-cyano-8-cyclohexyl-3,4-dihydro-1H-pyrano[3,4-c]pyridin-6-yl)-N-(4-fluorophenyl)-2-methylpiperazine-1-carboxamide] | 1 to 10 µM
CCOc1ccc(NC(=O)N2CCN(c3nc(C4CC4)c4c(c3C#N)CC(C)(C)OC4)C[C@H]2C(C)C)cc1 [Compound 282, (R)-4-(5-cyano-8-cyclopropyl-3,3-dimethyl-3,4-dihydro-1H-pyrano[3,4-c]pyridin-6-yl)-N-(4-ethoxyphenyl)-2-isopropylpiperazine-1-carboxamide] | 1 to 10 µM
CC(C)[C@@H]1CN(c2nc(C3CC3)c3c(c2C#N)CC(C)(C)OC3)CCN1C(=O)Nc1ccc(F)cc1 [Compound 283] | 1 to 10 µM
CC(C)[C@@H]1CN(c2nc(C3CC3)c3c(c2C#N)CC(C)(C)OC3)CCN1S(=O)(=O)c1cccs1 [Compound 284, (R)-8-cyclopropyl-6-(3-isopropyl-4-(thiophen-2-ylsulfonyl)piperazin-1-yl)-3,3-dimethyl-3,4-dihydro-1H-pyrano[3,4-c]pyridine-5-carbonitrile] | 1 to 10 µM
CC(C)[C@@H]1CN(c2nc(C3CC3)c3c(c2C#N)CC(C)(C)OC3)CCN1S(=O)(=O)c1ccc(Cl)s1 [Compound 285, (R)-6-(4-(5-chlorothiophen-2-ylsulfonyl)-3-isopropylpiperazin-1-yl)-8-cyclopropyl-3,3-dimethyl-3,4-dihydro-1H-pyrano[3,4-c]pyridine-5-carbonitrile] | 1 to 10 µM
CC(C)[C@@H]1CN(c2nc(C3CC3)c3c(c2C#N)CC(C)(C)OC3)CCN1C(=O)NCCc1ccccc1 [Compound 286] | 1 to 10 µM
CC(C)NC(=O)N1CCN(c2nc(C3CC3)c3c(c2C#N)CC(C)(C)OC3)C[C@H]1C(C)C [Compound 287] | 1 to 10 µM
CC(C)[C@@H]1CN(c2nc(C3CCC3)c3c(c2C#N)CC(C)(C)OC3)CCN1C(=O)c1ccoc1 [Compound 288, (R)-8-cyclobutyl-6-(4-(furan-3-carbonyl)-3-isopropylpiperazin-1-yl)-3,3-dimethyl-3,4-dihydro-1H-pyrano[3,4-c]pyridine-5-carbonitrile] | < 0.5 µM
CC(C)[C@@H]1CN(c2nc(C3CCC3)c3c(c2C#N)CC(C)(C)OC3)CCN1C(=O)Cc1cccs1 [Compound 289, (R)-8-cyclobutyl-6-(3-isopropyl-4-(2-(thiophen-2-yl)acetyl)piperazin-1-yl)-3,3-dimethyl-3,4-dihydro-1H-pyrano[3,4-c]pyridine-5-carbonitrile] | < 0.5 µM
